Results from US20110033390A1, “MR IMAGING AGENT OR MEDIUM COMPRESSING HYPERPOLARISED 13C ALANINE AND METHODS OF IMAGING WHEREIN SUCH AN IMAGING MEDIUM IS USED” (priority 2008, published 2011).
One block for each compound: values may come before it.

Legend:
[1] = Liquid state polarisation after dissolution and neutralization, by liquid state 13C-NMR at 400 MHz; format: physicochemical
Method: In a similar way, the level of polarisation for hyperpolarised ^13C-alanine in solution may be determined by liquid state NMR measurements. Again the signal intensity of the hyperpolarised ^13C-alanine in solution is compared with the signal intensity of the ^13C-alanine in solution before polarisation. The level of polarisation is then calculated from the ratio of the signal intensities of ^13C-alanine before and after polarisation.
After 150 minutes of dynamic nuclear polarisation, the obtained frozen polarised solution was dissolved in a dissolution medium containing 6 ml of a phosphate buffer (20 mM, pH 6.8, 100 mg/l EDTA), aqueous NaOH (27 μl 12 M solution, 1 eq) and 30 mg NaCl. The pH of the final liquid was 6.8.
Liquid state polarisation was determined by liquid state ^13C-NMR at 400 MHz to be 35%.
After 120 minutes of dynamic nuclear polarisation, the obtained frozen polarised solution was dissolved in a dissolution medium containing 6 ml BIS TRIS (40 mM, pH 6, 100 mg/l EDTA, 0.9% NaCl). The pH of the final solution containing the dissolved composition was 6.
Liquid state polarisation was determined by liquid state ^13C-NMR at 400 MHz to be 16%.

Hep-G2 cells = assay: In vitro 13C-MR spectroscopy with hyperpolarised 13C1-alanine imaging medium; format: cell-based, human; settings: 3 mM 13C1-alanine, 10x10^6 Hep-G2 cells, 20 s incubation
Method: An imaging medium was prepared as described in Example 1 and 100 μl of the imaging medium (3 mM ^13C1-alanine) was mixed into 10×10^6 Hep-G2 cells (human hepatocellular carcinoma cells). A single ^13C-MR spectrum was acquired after a total of 20 s incubation time with a 90 degree RF pulse. ^13C1-pyruvate and ^13C1-lactate were identified in the spectrum. The conversion of alanine was approximately 0.1% to both lactate and pyruvate.

mice (whole body) = assay: In vivo 13C-MR spectroscopy in mice (whole body); set-up: species or system mouse
Method: 175 μl of an imaging medium which was prepared as described in Example 1 was injected into a C57B1/6 mouse over a time period of 6 s. The ^13C1-alanine concentration in said imaging medium was approximately 50 mM and 3 animals were used in the experiment. A rat size whole body coil (tuned for proton and carbon) was placed over the animal and ^13C-MR spectroscopy was carried out in a 9.4 T magnet. A dynamic set of ^13C-MR spectra (in total 5) was acquired every 5 s with a 15 degree RF pulse. Metabolism was seen to ^13C1-lactate (approximately 1% of the ^13C1-lactate signal), see FIG. 1. […] The following decay time was calculated from the MR spectra: ^13C1-lactate 33 s. […] It is thus favourable to detect the lactate signal which due to its slow decay provides a larger MR detection window.

mouse liver = assay: In vivo 13C-MR spectroscopy in mice (liver); settings: C57B1/6 mouse, surface coil over liver
Method: 175 μl of an imaging medium which was prepared as described in Example 1 was injected into a C57B1/6 mouse over a time period of 6 s. The ^13C1-alanine concentration in said imaging medium was approximately 55 mM. A surface coil (tuned for proton and carbon) was positioned over the liver of the animal and ^13C-MR spectroscopy was carried out in a 9.4 T magnet. A dynamic set of ^13C-MR spectra (in total 15) was acquired every 5 s with a 30 degree RF pulse. This experiment confirmed that ^13C1-lactate is building up during the time course of the experiment, see FIG. 3.

mouse heart = assay: In vivo 13C-MR spectroscopy in mice (heart)
Method: 175 μl of an imaging medium which was prepared as described in Example 1 was injected into a C57B1/6 mouse over a time period of 6 s. The ^13C1-alanine concentration in said imaging medium was about 55 mM. A surface coil (tuned for proton and carbon) was positioned over the heart of the animal and ^13C-MR spectroscopy was carried out in a 9.4 T magnet. A dynamic set of ^13C-MR spectra (in total 10) was acquired every 5 s with a 30 degree RF pulse. […] The lactate seen in the experiment is expected to originate from pyruvate. […] Comparing Examples 5 and 6, a different metabolic profile is obtained for the liver and the heart showing that ^13C-alanine is a tissue specific metabolic marker.

[2] = Solid state polarisation after DNP, by solid state 13C-NMR; format: physicochemical; settings: DNP at 1.2 K, 3.35 T, microwave 93.90 GHz; trityl radical and Gd-chelate present
Source text: The level of polarisation may for instance be determined by solid state ^13C-NMR measurements in solid hyperpolarised ^13C-alanine, e.g. solid hyperpolarised ^13C-alanine obtained by dynamic nuclear polarisation (DNP) of ^13C-alanine. The solid state ^13C-NMR measurement preferably consists of a simple pulse-acquire NMR sequence using a low flip angle. The signal intensity of the hyperpolarised ^13C-alanine in the NMR spectrum is compared with signal intensity of ^13C-alanine in a NMR spectrum acquired before the polarisation process. The level of polarisation is then calculated from the ratio of the signal intensities of before and after polarisation.
The probe is inserted into the probe-retaining container, submerged in the liquid helium and irradiated with microwaves, preferably at a frequency of about 94 GHz at 200 mW. The level of polarisation may for instance be monitored by solid state ^13C-NMR measurements of the ^13C-nuclei in the frozen composition comprising the hyperpolarised sample. […] The level of polarisation is then calculated from the ratio of the signal intensities of before and after polarisation.
32.5 mg (0.258 mmol) of the ^13C1-alaninium chloride obtained in Example 1a was added to 42 mg of a stock solution in a micro test tube. […] Polarisation was followed by solid state ^13C-NMR and the solid state polarisation was determined to be 40%. […]

[3] = mouse, in vivo
Method: In another preferred embodiment, the imaging medium comprising hyperpolarised ^13C-alanine is administered repeatedly, thus allowing dynamic studies. This is a further advantage of the method according to the invention compared to other MR detection methods using conventional MR contrast agents which—in higher doses—may show toxic effects.

[4] = Relaxation / loss of polarisation in solution as a function of pH; format: physicochemical; settings: solutions with a pH above 7
Source text: If the sample used in the composition for DNP is a carboxylate salt of ^13C-alanine, said salt needs to be converted to the free ^13C-alanine by reaction (neutralization) with an acid. […] Thus, if a carboxylate salt of ^13C-alanine was used in the composition for DNP, the liquefaction and neutralization of the solid composition comprising the hyperpolarised carboxylate salt of ^13C-alanine needs to be carried out carefully in order to avoid loss of polarisation. Neutralization may be carried out simultaneously or subsequently to the liquefaction, for the latter it must be taken care that neutralization is carried out quickly and directly after liquefaction. Thus, in one embodiment the liquefaction is carried out by melting or dissolution of the frozen composition and neutralization with an acid is quickly carried out after the frozen composition was dissolved/melted. In another embodiment, liquefaction and neutralization are carried out simultaneously, e.g. by dissolving the frozen composition in a dissolution medium which is or contains an acid that is capable of converting the hyperpolarised carboxylate salt of ^13C-alanine to ^13C-alanine. In yet another embodiment the acid is added to the probe-retaining cup which contains the frozen composition in the dynamic nuclear polarisation process. […] The most preferred acid is HCl since it is cheap and readily available.

Structure (SMILES): CC(N)[13C](=O)O (stereo not drawn) [^13C1-alanine]
liquid state polarisation ([1]; Example 1c: from 13C1-alaninium chloride after 150 min DNP, dissolved in phosphate buffer/NaOH, final pH 6.8): 35%
liquid state polarisation ([1]; Example 2: from sodium 13C1-2-amino-propanoate after 120 min DNP, dissolved in BIS TRIS, HCl neutralization, final pH 6): 16%
conversion of alanine to lactate (Hep-G2 cells): approximately 0.1%
conversion of alanine to pyruvate (Hep-G2 cells): approximately 0.1%
metabolism to 13C1-lactate (relative signal) (mice (whole body); C57B1/6 mouse, 175 µl of approx. 50 mM injected over 6 s, whole body coil, 9.4 T): approximately 1%
pyruvate signal (mice (whole body); mouse whole body): No pyruvate signal could be detected
13C1-lactate signal over the time course (mouse liver; 175 µl of approx. 55 mM): building up
13C1-pyruvate and 13C1-bicarbonate signals (mouse liver; 15 combined spectra): could be detected
build-up of 13C1-lactate (mouse heart; C57B1/6 mouse, 175 µl of about 55 mM, surface coil over heart): noteworthy slow
pyruvate signal (mouse heart; mouse heart): absence of pyruvate

Structure (SMILES): C[C@H](O)[13C](=O)O [^13C1-lactate]
decay time calculated from the MR spectra (mice (whole body); 13C1-lactate signal after injection of hyperpolarised 13C1-alanine, mouse whole body): 33 s

Structure (SMILES): CC(N)C(=O)O (stereo not drawn) [hyperpolarised ^13C-alanine, 2-amino-propanoic acid]
tolerability [3]: well tolerated
relaxation rate / loss of polarisation [4]: high relaxation rates

Further lines, results first:

solid state polarisation [2]: 40%
Structure (SMILES): C[C@H](N)[13C](=O)O.Cl [^13C1-alaninium chloride]

solid state polarisation [2]: 18%
Structure (SMILES): CC(N)[13C](=O)[O-].[Na+] (stereo not drawn) [sodium ^13C1-2-amino-propanoate]
